Drawing on patent US9598433B2, “Hepatitis C virus inhibitors” (BRISTOL-MYERS SQUIBB COMPANY, priority 2012, dated 2017), this text covers EC50 for 5 compounds.

For orientation: EC50 means the concentration at which the effect is half-maximal.

Assay [1] has as its system HCV genotype 1a (H77 strain) replicon in HUH-7 cells. Briefly: HCV replicon luciferase reporter assay, genotype 1a. The class given is cell-based. Conditions: Hepatitis C virus, 72 h, genotype 1a replicon, 3 days incubation. An excerpt: (§1) An HCV replicon whole cell system was established as described by Lohmann V, Korner F, Koch J, Herian U, Theilmann L, Bartenschlager R., Science 285(5424):110-3 (1999) and modified to introduce a luciferase reporter, as first described by Krieger et al (Krieger N, Lohmann V, and Bartenschlager R, J. Virol. 75(10):4614-4624 (2001)). CDNA encoding a humanized form of the Renilla luciferase gene and a linker sequence fused directly to the 3′-end of the luciferase gene were introduced into the replicon construct using an Ascl restriction site located in core, directly upstream of the neomycin marker gene. The adaptive mutation at position 1179 (serine to isoleucine) was also introduced (Blight K J, Kolykhalov, A A, Rice, C M, Science 290(5498):1972-1974). A stable cell line constitutively expressing this HCV replicon construct was generated by first linearizing plasmid DNAs with ScaI. RNA transcripts were synthesized in vitro using the T7 MegaScript transcription kit (Ambion, Austin, Tex.) according to manufacturer's directions. In vitro transcripts of the cDNA were transfected into the human hepatoma cell line, HUH-7. […] Resulting cell lines were characterized for positive and negative strand RNA production and protein production over time.
A stable HCV replicon luciferase reporter cell line representing the genotype 1a H77 strain (Yanagi M, Purcell R H, Emerson S U, et al. Transcripts from a single full-length cDNA clone of hepatitis C virus are infectious when directly transfected into the liver of a chimpanzee. Proc Natl Acad Sci USA 1997; 94(16):8738-8743) was generated as described previously for the genotype 1b(Con1) replicon luciferase cell line. The replicon construct was modified by introducing mutations were introduced into the genes encoding the NS3 helicase domain (proline replaced by leucine at position 1496) and NS5A (serine to isoleucine at position 2204) to improve replication in cell culture.
(§2) HCV replicon luciferase assays were developed to monitor the inhibitory effects of compounds described in the disclosure on HCV genotypes 1a and 1b viral replication. HUH-7 cells, constitutively expressing the HCV replicon, were grown in Dulbecco's Modified Eagle Media (DMEM) (Gibco-BRL) containing 10% Fetal calf serum (FCS) (Sigma) and 1 mg/mL G418 (Gibco-BRL). Compounds were serially diluted 3 folds in DMSO for a twenty-point titration and subsequently transferred to sterile 384-well tissue-culture treated plates (Corning cat #3571). The plates were then seeded with 50 μL of cells at a density of 3.0×10^3 cells/well in DMEM containing 4% FCS (final DMSO concentration at 0.5%). After 3 days incubation at 37° C., cells were analyzed for Renilla Luciferase activity using the EnduRen as substrate (Promega cat #E6485). The EnduRen substrate was diluted in DMEM and then added to the plates to a final concentration of 7.5 μM. The plates were incubated for 2 hrs at 37° C. and then read immediately for 30 seconds with Viewlux Imager (PerkinElmer) using a luminescence program. To assess cytotoxicity of compounds, CC50 values were generated by multiplexing the EnduRen-containing plates with Cell Titer-Blue (Promega, cat # G8082). Cell-Titer Blue (3 μL) was added to each well and incubated for 8 hrs at 37° C. The fluorescence signal from each well was read, with an excitation wavelength at 525/10 nm and an emission wavelength of 598/10 nm, using the Viewlux Imager.
(§3) The EC50 values for compounds were calculated by using a four-parameter logistic equation: y=A+((B−A)/(1+((C/x)^D))), where A and B denotes minimal and maximal % inhibition, respectively, C is the EC50, D is the hill slope and x represents compound concentration.
For orientation: Replicon systems follow genome replication, usually without infectious particles.

The test system of assay [2] is HCV genotype 1b (Con1) replicon in HUH-7 cells. Put plainly: HCV replicon luciferase reporter assay, genotype 1b. The format is cell-based. Conditions: Hepatitis C virus, 72 h, genotype 1b replicon, 3 days incubation.
From the text: as §1, §2, §3

Like-named read-outs stand apart in the source and are kept apart here.

Consider `CCOc1cc2ccnc(O[C@@H]3C[C@H]4C(=O)N[C@]5(C(=O)NS(=O)(=O)C6(C)CC6)C[C@H]5/C=C\CC[C@@H](C)O[C@@H](CC)[C@H](NC(=O)OC(C)(C)C(F)(F)F)C(=O)N4C3)c2cc1F` [Compound 2608, 1,1,1-trifluoro-2-methylpropan-2-yl ((2R,6S,7S,9R,13aS,14aR,16aS,Z)-2-((6-ethoxy-7-fluoroisoquinolin-1-yl)oxy)-7-ethyl-9-methyl-14a-(((1-methylcyclopropyl)sulfonyl)carbamoyl)-5,16-dioxo-2,3,5,6,7,9,10,11,13a,14,14a,15,16,16a-tetradecahydro-1H-cyclopropa[i]pyrrolo[1,2-e][1,5,8]oxadiazacyclopentadecin-6-yl)carbamate], for which the EC50 in assay [1] (read-out: LE_1a (EC50, range)) lay within 0.51 to 1 nM; in assay [2] (read-out: LE_1b (EC50, range)) it was 0.1 to 0.5 nM.

For the compound `COc1ccc2c(O[C@@H]3C[C@H]4C(=O)N[C@]5(C(=O)NS(=O)(=O)C6CC6)C[C@H]5/C=C\CO[C@@H](C)C[C@@H](C)[C@H](NC(=O)OC(C)(C)C(F)(F)F)C(=O)N4C3)nccc2c1` [Compound 2604, 1,1,1-trifluoro-2-methylpropan-2-yl ((2R,6S,7R,9S,13aS,14aR,16aS,Z)-14a-((cyclopropylsulfonyl)carbamoyl)-2-((6-methoxyisoquinolin-1-yl)oxy)-7,9-dimethyl-5,16-dioxo-2,3,5,6,7,8,9,11,13a,14,14a,15,16,16a-tetradecahydro-1H-cyclopropa[e]pyrrolo[2,1-i][1,7,10]oxadiazacyclopentadecin-6-yl)carbamate], the EC50 in assay [1] (read-out: LE_1a (EC50, range)) lay in the range of 5.01 to 35 nM; in assay [2] (read-out: LE_1b (EC50, range)) it was 1.01 to 5 nM.

For `CC[C@@H]1O[C@H](C)CC/C=C\[C@@H]2C[C@@]2(C(=O)NS(=O)(=O)C2(C)CC2)NC(=O)[C@@H]2C[C@@H](Oc3nc4c(c5cc(OC)ccc35)CCCO4)CN2C(=O)[C@H]1NC(=O)OC(C)(C)C(F)F` [Compound 2311, 1,1-difluoro-2-methylpropan-2-yl ((2R,6S,7S,9R,13aS,14aR,16aS,Z)-7-ethyl-2-((9-methoxy-2,3-dihydro-1H-pyrano[2,3-c]isoquinolin-6-yl)oxy)-9-methyl-14a-(((1-methylcyclopropyl)sulfonyl)carbamoyl)-5,16-dioxo-2,3,5,6,7,9,10,11,13a,14,14a,15,16,16a-tetradecahydro-1H-cyclopropa[i]pyrrolo[1,2-e][1,5,8]oxadiazacyclopentadecin-6-yl)carbamate], the EC50 in assay [1] (read-out: LE_1a (EC50, range)) lay within 0.1 to 0.5 nM; in assay [2] (read-out: LE_1b (EC50, range)), 0.1 to 0.5 nM.

For the compound `COc1ccc2c(O[C@@H]3C[C@H]4C(=O)N[C@]5(C(=O)NS(=O)(=O)C6CC6)C[C@H]5/C=C\CO[C@@H](C)C[C@@H](C)[C@H](NC(=O)OC(C)(C)C)C(=O)N4C3)nccc2c1` [Compound 2603, tert-butyl ((2R,6S,7R,9S,13a5,14aR,16aS,Z)-14a-((cyclopropylsulfonyl)carbamoyl)-2-((6-methoxyisoquinolin-1-yl)oxy)-7,9-dimethyl-5,16-dioxo-2,3,5,6,7,8,9,11,13a,14,14a,15,16,16a-tetradecahydro-1H-cyclopropa[e]pyrrolo[2,1-i][1,7,10]oxadiazacyclopentadecin-6-yl)carbamate], the concentration giving a half-maximal response (EC50) is 9.08 nM in assay [1] (read-out: LE_1a (EC50)); 5.01 to 35 nM in assay [1] (read-out: LE_1a (EC50, range)); 6.64 nM in assay [2] (read-out: LE_1b (EC50)); 5.01 to 35 nM in assay [2] (read-out: LE_1b (EC50, range)).

As to `CC[C@@H]1O[C@H](C)CC/C=C\[C@@H]2C[C@@]2(C(=O)NS(=O)(=O)C2(C)CC2)NC(=O)[C@@H]2C[C@@H](Oc3cc(OC)nc4cc(OC)c(F)cc34)CN2C(=O)[C@H]1NC(=O)OC(C)(C)C(F)(F)F` [Compound 1018, 1,1,1-trifluoro-2-methylpropan-2-yl ((2R,6S,7S,9R,13aS,14aR,16aS,Z)-7-ethyl-2-((6-fluoro-2,7-dimethoxyquinolin-4-yl)oxy)-9-methyl-14a-(((1-methylcyclopropyl)sulfonyl)carbamoyl)-5,16-dioxo-2,3,5,6,7,9,10,11,13a,14,14a,15,16,16a-tetradecahydro-1H-cyclopropa[i]pyrrolo[1,2-e][1,5,8]oxadiazacyclopentadecin-6-yl)carbamate], the EC50 in assay [1] (read-out: LE_1a (EC50, range)) is 1.01 to 5 nM; in assay [2] (read-out: LE_1b (EC50, range)) it was 0.51 to 1 nM.
